Experimental data from patent US10709653B2, “Cosmetic compositions comprising spiculisporic acid and at least one sulfate and/or sulfonate surfactant” (L'OREAL, priority 2013, dated 2020).
Read-outs that look alike come from different tables or passages of the source.

Columns and labels:
[1] = Aspect and pH on storage of spiculisporic acid solutions pre-solubilized with KOH, alone or with surfactants (Example 2); assay type: physicochemical
Excerpt: Solutions containing the S-acid at 4% or 8% (neutralized with an amount of KOH calculated so as to obtain the di-potassium salt of S-acid, i.e. R1=2) and surfactants, were made.

[2] = Aspect and pH on storage of S-acid solutions salified with KOH, Arg or TEA with sulfate or sulfonate surfactant (Example 3); assay type: physicochemical; parameters: key to Aspect (macroscopic observation) 15 days 4° C. / Aspect (macroscopic observation) 15 days RT: *: showed a precipitate; conditions: S-acid 4.00% MA
Experimental: The compositions of Table 3 above were prepared according to the following operating procedure:
Phase A was heated to 40° C. After solubilization of the S-acid, the phase B was added to the Phase A. Next, the phase C was added after phase B.
A portion of the solution was stored at room temperature and the other one at 4° C.

[3] = cited from earlier work
[4] = S-acid 4% MA, KOH (R=2), named surfactant 4% if any
[5] = sulfate surfactant 4.00% MA, base Arg, R 1.10
[6] = sulfate surfactant 4.00% MA, base Arg, R 1.25
[7] = sulfate surfactant 4.00% MA, base Arg, R 1.75
[8] = sulfate surfactant 4.00% MA, base Arg, R 2.00
[9] = sulfate surfactant 4.00% MA, base KOH, R 2.00
[10] = sulfate surfactant 4.00% MA, base TEA, R 1.10
[11] = sulfate surfactant 4.00% MA, base TEA, R 1.25
[12] = sulfate surfactant 4.00% MA, base TEA, R 1.75
[13] = sulfate surfactant 4.00% MA, base TEA, R 2.00
[14] = sulfonate surfactant 4.00% MA, base Arg, R 1.10
[15] = sulfonate surfactant 4.00% MA, base Arg, R 1.25
[16] = sulfonate surfactant 4.00% MA, base Arg, R 1.75
[17] = sulfonate surfactant 4.00% MA, base Arg, R 2.00
[18] = sulfonate surfactant 4.00% MA, base KOH, R 2.00
[19] = sulfonate surfactant 4.00% MA, base TEA, R 1.10
[20] = sulfonate surfactant 4.00% MA, base TEA, R 1.25
[21] = sulfonate surfactant 4.00% MA, base TEA, R 1.75
[22] = sulfonate surfactant 4.00% MA, base TEA, R 2.00

pH t0 RT ([1]; S-acid 4% MA, KOH (R=2), named surfactant 4% active material if any): 5.97
pH 20 days after storage T = 4° C. [1, 4]: 6.01
pH 20 days after storage RT [1, 4]: 6.02
Aspect after 20 days of storage at 4° C. ([1]; S-acid 4%, KOH (R=2), surfactant 4% if any): precipitation
pH 20 days after storage T = 4° C. ([1]; S-acid 8% MA, KOH (R=2)): 6.47
pH 20 days after storage RT ([1]; S-acid 8% MA, KOH (R=2)): 6.47
pH t0 RT ([1]; S-acid 8% MA, neutralized with KOH (R=2)): 6.43
Aspect after 20 days of storage at 4° C. ([1]; S-acid 8%, KOH (R=2)): precipitation
pH 15 days 4° C. [2, 5]: 5.19
pH 15 days RT [2, 5]: 5.11
pH 15 days 4° C. [2, 6]: 5.33
pH 15 days RT [2, 6]: 5.34
pH 15 days 4° C. [2, 7]: 5.93
pH 15 days RT [2, 7]: 5.95
pH 15 days 4° C. [2, 8]: 6.25
pH 15 days RT [2, 8]: 6.21
Aspect (macroscopic observation) 15 days 4° C. [2, 9]: *
Aspect (macroscopic observation) 15 days RT [2, 9]: *
pH 15 days 4° C. [2, 9]: 6.24
pH 15 days RT [2, 9]: 6.33
pH 15 days 4° C. [2, 10]: 5.26
pH 15 days RT [2, 10]: 5.19
pH 15 days 4° C. [2, 11]: 5.38
pH 15 days RT [2, 11]: 5.39
pH 15 days 4° C. [2, 12]: 6.02
pH 15 days RT [2, 12]: 5.98
pH 15 days 4° C. [2, 13]: 6.32
pH 15 days RT [2, 13]: 6.32
pH 15 days 4° C. [2, 14]: 5.07
pH 15 days RT [2, 14]: 5.00
pH 15 days 4° C. [2, 15]: 5.28
pH 15 days RT [2, 15]: 5.27
pH 15 days 4° C. [2, 16]: 5.89
pH 15 days RT [2, 16]: 5.93
pH 15 days 4° C. [2, 17]: 6.19
pH 15 days RT [2, 17]: 6.18
Aspect (macroscopic observation) 15 days 4° C. [2, 18]: *
pH 15 days 4° C. [2, 18]: 6.34
pH 15 days RT [2, 18]: 6.43
pH 15 days 4° C. [2, 19]: 5.22
pH 15 days RT [2, 19]: 5.17
pH 15 days 4° C. [2, 20]: 5.37
pH 15 days RT [2, 20]: 5.33
pH 15 days 4° C. [2, 21]: 5.96
pH 15 days RT [2, 21]: 5.97
pH 15 days 4° C. [2, 22]: 6.34
pH 15 days RT [2, 22]: 6.33
Structure (SMILES): CCCCCCCCCCC(C(=O)O)C1(C(=O)O)CCC(=O)O1 (stereo not drawn) [S-acid, 4,5-dicarboxy-4-pentadecanolide]
Solubility in water ([3]; high temperature): partly soluble
Solubility in ethanol ([3]; room temperature): soluble
Solubility in fats ([3]; room temperature): insoluble
Solubility in water ([3]; room temperature): insoluble
